From paper PMC12126525, “Mechanism of ATP hydrolysis in the Hsp70 BiP nucleotide-binding domain” (Nature Communications, 2025)
Several values for one entry are separate records, joined by “and”; a condition that tells them apart may be missing. Identical values can stand only once.

What was measured:
BiP NBD [1] = biological target: T1, BiP NBD (Homo sapiens, UniProt P11021); experiment: Global kinetic fit (MCMC) of four NMR data sets (E1+E2, E1 only, E2 only, no recycling): functional cycle kinetic parameters; format: biochemical; set-up: His6 (N, cleaved yes); made in house; host or cells: E. coli BL21-(DE3)-Lemo, pET28a vector; details: for Kd: standard buffer
T1 sequence (P11021 19-406): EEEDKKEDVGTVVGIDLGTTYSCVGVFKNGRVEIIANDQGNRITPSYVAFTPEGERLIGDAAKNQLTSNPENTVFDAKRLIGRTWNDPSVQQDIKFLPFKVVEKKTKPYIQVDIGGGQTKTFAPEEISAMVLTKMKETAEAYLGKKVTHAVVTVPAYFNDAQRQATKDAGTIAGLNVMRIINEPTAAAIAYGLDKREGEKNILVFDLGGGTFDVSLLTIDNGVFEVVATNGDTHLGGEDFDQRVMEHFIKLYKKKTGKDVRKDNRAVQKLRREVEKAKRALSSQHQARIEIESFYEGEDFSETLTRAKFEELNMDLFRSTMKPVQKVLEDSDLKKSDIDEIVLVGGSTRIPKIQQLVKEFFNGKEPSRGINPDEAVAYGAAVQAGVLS
Excerpt: It comprises 5 different states that are connected by […] reaction equations of first and second order. We consider ATP hydrolysis an irreversible reaction without backreaction. The other pathways are reversible dissociation/association reactions, arbitrarily labeled 1–5. The microscopic equations (elementary reactions) for these 11 reactions are given by:1 NBD^ATPkcat→NBD^ADP⋅Pi 2 NBD^ATPkoff1⇌kon1NBD^apo+ATP 3 NBD^ADPkoff2⇌kon2NBD^apo+ADP 4 NBD^Pikoff3⇌kon3NBD^apo+Pi 5 NBD^ADP⋅Pikoff4⇌kon4NBD^ADP+Pi 6 NBD^ADP⋅Pikoff5⇌kon5NBD^Pi+ADP With the forward and backward kinetic rate constants connected by thermodynamic equilibrium dissociation constants given by7 koffi/koni=KDifori=1,…,5 For each of the 5 states, a differential equation describing the conservation of mass can be derived:8 d/dtNBD^apo=+koff1NBD^ATP+koff2NBD^ADP+koff3NBD^Pi−kon1NBD^apoATP−kon2NBD^apoADP−kon3NBD^apoPi 9 d/dt[NBD^ATP]=+kon1NBD^apoATP−koff1NBD^ATP−kcatNBD^ATP 10 d/dtNBD^ADP⋅Pi=+kcatNBD^ATP+kon4NBD^ADPPi+kon5NBD^PiADP−koff4NBD^ADP⋅Pi−koff5NBD^ADP⋅Pi 11 d/dtNBD^ADP=+koff4NBD^ADP⋅Pi+kon2NBD^apoADP−koff2NBD^ADP−kon4NBD^ADPPi 12 d/dtNBD^Pi=+koff5NBD^ADP⋅Pi+kon3NBD^apoPi−koff3NBD^Pi−kon5NBD^PiADP Furthermore, we have the total amount13 NBD^apo+NBD^ATP+NBD^ADP+NBD^ADP⋅Pi+NBD^Pi=NBD0 These equations can be used for numerical fitting of steady-state and non-steady-state experimental data.
The experimental data of the BiP NBD in-cyclo experiments were fitted using standard reaction kinetics. Free variables were the kon and koff rates for the five reversible reaction and the catalytic rate constant (kcat) for the irreversible ATP hydrolysis step (See theory section). The initial values for kcat , koff2 , koff4 and koff5 were set to the value determined experimentally with in-cyclo experiment. The initial value for koff3 was taken from the EXSY experiment and the initial range for koff1 and KD1 were taken from the literature. […] The prior distributions were defined based on the average state occupancy resolved from the in-cyclo experiment: tNBD·ADP, tNBD, tNBD·ADP·Pi and tNBD·Pi. Numerical integration of the corresponding differential equations for the reaction scheme (described in Fig. 2a) was performed using a custom Python module (Kinetic).
To fully determine all kinetic parameters, the data fitting procedure was conducted as a global fit of four independent experimental datasets: (i) the in-cyclo experiment with ATP regeneration and phosphate removal, (ii) ATP regeneration only, (iii) single batch experiments starting from pure ATP with the phosphate removal system, and (iv) single batch experiments starting from pure ATP.
Fitting of the functional cycle kinetic parameters. a-d, Global fit of the experimental data presented in the manuscript E1 +E2 (a), E1 (b), E2 (c), no recycling system (d). Data points are shown as circles NBD·ADP (blue), NBD·ADP·PI (dark blue) and NBD·ATP (red) (left) and pyruvate (grey), glucose-1-P (lavender), ATP (red) and ADP (blue) (right). The fit of the data is shown as lines in the same color as the data points. Data points and standard deviation for three independent experiments. e, Numerical stability of the global fitting of the experimental data.

BiP NBD [2] = biological target: T1, BiP NBD; experiment: In-cyclo NMR in the presence of 3.3 mM calcium; format: biochemical; set-up: His6 (N, cleaved yes); made in house; host or cells: E. coli BL21-(DE3)-Lemo, pET28a vector
BiP = details: cited from earlier work
[3] = Supplementary Fig 10a, time 5 min
[4] = Supplementary Fig 10a, time 11 min
[5] = Supplementary Fig 10a, time 17 min
[6] = Supplementary Fig 10a, time 23 min
[7] = Supplementary Fig 10a, time 29 min
[8] = Supplementary Fig 10a, time 35 min
[9] = Supplementary Fig 10a, time 41 min
[10] = Supplementary Fig 10a, time 47 min
[11] = Supplementary Fig 10a, time 53 min
[12] = Supplementary Fig 10a, time 59 min
[13] = Supplementary Fig 10a, time 65 min
[14] = Supplementary Fig 10a, time 71 min
[15] = Supplementary Fig 10b, time 10 min
[16] = Supplementary Fig 10b, time 16 min
[17] = Supplementary Fig 10b, time 22 min
[18] = Supplementary Fig 10b, time 28 min
[19] = Supplementary Fig 10b, time 34 min
[20] = Supplementary Fig 10b, time 40 min
[21] = Supplementary Fig 10b, time 46 min
[22] = Supplementary Fig 10b, time 52 min
[23] = Supplementary Fig 10b, time 58 min
[24] = Supplementary Fig 10b, time 64 min
[25] = Supplementary Fig 10b, time 70 min
[26] = Supplementary Fig 10c, time 5 min
[27] = Supplementary Fig 10c, time 11 min
[28] = Supplementary Fig 10c, time 17 min
[29] = Supplementary Fig 10c, time 23 min
[30] = Supplementary Fig 10c, time 29 min
[31] = Supplementary Fig 10c, time 35 min
[32] = Supplementary Fig 10c, time 41 min
[33] = Supplementary Fig 10c, time 47 min
[34] = Supplementary Fig 10c, time 53 min
[35] = Supplementary Fig 10d, time 5 min
[36] = Supplementary Fig 10d, time 11 min
[37] = Supplementary Fig 10d, time 17 min
[38] = Supplementary Fig 10d, time 23 min
[39] = Supplementary Fig 10d, time 29 min
[40] = Supplementary Fig 10d, time 35 min
[41] = Supplementary Fig 10d, time 41 min
[42] = Supplementary Fig 10d, time 47 min
[43] = Supplementary Fig 10d, time 53 min
[44] = reactions 1-3 (koff1, koff2, koff3): release from binary complex, T = 37 °C
[45] = reactions 1-3: binding to apo NBD, T = 37 °C
[46] = reactions 1-3: ligand leaving the binary complex to give apo NBD, T = 37 °C

In the case of `Nc1ncnc2c1ncn2[C@@H]1O[C@H](COP(=O)(O)OP(=O)(O)OP(=O)(O)O)[C@@H](O)[C@H]1O` [ATP], the kcat (BiP NBD [1]; NBD·ATP → NBD·ADP·Pi, T = 37 °C) is reported as 0.065 ± 0.013 s⁻¹ and 0.065 ± 0.01 s⁻¹, the species (BiP NBD [1]; [3]) is reported as 4931 µM and the species (BiP NBD [1]; [4]) is reported as 4934 µM. For the same molecule, the species (BiP NBD [1]; [5]) was 4884 µM, the species (BiP NBD [1]; [6]) was 4899 µM and the species (BiP NBD [1]; [7]) was 4939 µM. For the same molecule, the species (BiP NBD [1]; [8]) was 4943 µM, the species (BiP NBD [1]; [9]) was 4963 µM and the species (BiP NBD [1]; [10]) was 4978 µM. The species (BiP NBD [1]; [11]) was 5001 µM, the species (BiP NBD [1]; [12]) was 5024 µM and the species (BiP NBD [1]; [13]) was 5048 µM. It also gave a species (BiP NBD [1]; [14]) of 5079 µM, a species (BiP NBD [1]; [15]) of 5016 µM and a species (BiP NBD [1]; [16]) of 4951 µM. It also gave a species (BiP NBD [1]; [17]) of 4989 µM, a species (BiP NBD [1]; [18]) of 4949 µM and a species (BiP NBD [1]; [19]) of 5005 µM. The species (BiP NBD [1]; [20]) was 4923 µM, the species (BiP NBD [1]; [21]) was 4996 µM and the species (BiP NBD [1]; [22]) was 4916 µM. The species (BiP NBD [1]; [23]) was 4954 µM, the species (BiP NBD [1]; [24]) was 4989 µM and the species (BiP NBD [1]; [25]) was 4937 µM. It also gave a species (BiP NBD [1]; [26]) of 4151 µM, a species (BiP NBD [1]; [27]) of 3560 µM and a species (BiP NBD [1]; [28]) of 3077 µM. For the same molecule, the species (BiP NBD [1]; [29]) was 2698 µM, the species (BiP NBD [1]; [30]) was 1801 µM and the species (BiP NBD [1]; [31]) was 1548 µM. It also gave a species (BiP NBD [1]; [32]) of 1183 µM, a species (BiP NBD [1]; [33]) of 1030 µM and a species (BiP NBD [1]; [34]) of 902 µM. It also gave a kcat fitted average (BiP NBD [1]; Supplementary Fig 11b, fitted) of 0.065 s⁻¹, a species (BiP NBD [1]; [35]) of 4064 µM and a species (BiP NBD [1]; [36]) of 3620 µM. It also gave a species (BiP NBD [1]; [37]) of 3330 µM, a species (BiP NBD [1]; [38]) of 3106 µM and a species (BiP NBD [1]; [39]) of 2931 µM. The species (BiP NBD [1]; [40]) was 2788 µM, the species (BiP NBD [1]; [41]) was 2663 µM and the species (BiP NBD [1]; [42]) was 2548 µM. For the same molecule, the species (BiP NBD [1]; [43]) was 2448 µM, the “factor by which ATP unbinding is rarer than ATP hydrolysis” value (BiP NBD [1]; koff1 versus kcat) was 5 times and the koff (BiP NBD [1]; [44]) was 0.012 ± 0.003 s⁻¹. The kon (BiP NBD [1]; [45]) was 32000 ± 9000 M⁻¹ s⁻¹ and the Kd (BiP NBD [1]; [46]) was 0.38 ± 0.12 µM.

`O=P(O)(O)O` [Pi] gave a species (BiP NBD [1]; [3]) of 25 µM, a species (BiP NBD [1]; [4]) of 25 µM and a species (BiP NBD [1]; [5]) of 25 µM. It also gave a species (BiP NBD [1]; [6]) of 25 µM, a species (BiP NBD [1]; [7]) of 25 µM and a species (BiP NBD [1]; [8]) of 25 µM. For the same molecule, the species (BiP NBD [1]; [9]) was 25 µM, the species (BiP NBD [1]; [10]) was 25 µM and the species (BiP NBD [1]; [11]) was 25 µM. The species (BiP NBD [1]; [12]) was 25 µM, the species (BiP NBD [1]; [13]) was 25 µM and the species (BiP NBD [1]; [14]) was 25 µM. For the same molecule, the species (BiP NBD [1]; [15]) was 1011 µM, the species (BiP NBD [1]; [16]) was 1602 µM and the species (BiP NBD [1]; [17]) was 2255 µM. The species (BiP NBD [1]; [18]) was 2820 µM, the species (BiP NBD [1]; [19]) was 3384 µM and the species (BiP NBD [1]; [20]) was 3735 µM. It also gave a species (BiP NBD [1]; [21]) of 4207 µM, a species (BiP NBD [1]; [22]) of 4544 µM and a species (BiP NBD [1]; [23]) of 4962 µM. The species (BiP NBD [1]; [24]) was 5335 µM, the species (BiP NBD [1]; [25]) was 5727 µM and the species (BiP NBD [1]; [26]) was 25 µM. It also gave a species (BiP NBD [1]; [27]) of 25 µM, a species (BiP NBD [1]; [28]) of 25 µM and a species (BiP NBD [1]; [29]) of 25 µM. For the same molecule, the species (BiP NBD [1]; [30]) was 25 µM, the species (BiP NBD [1]; [31]) was 25 µM and the species (BiP NBD [1]; [32]) was 25 µM. It also gave a species (BiP NBD [1]; [33]) of 25 µM, a species (BiP NBD [1]; [34]) of 25 µM and a species (BiP NBD [1]; [35]) of 936 µM. The species (BiP NBD [1]; [36]) was 1380 µM, the species (BiP NBD [1]; [37]) was 1670 µM and the species (BiP NBD [1]; [38]) was 1894 µM. It also gave a species (BiP NBD [1]; [39]) of 2069 µM, a species (BiP NBD [1]; [40]) of 2212 µM and a species (BiP NBD [1]; [41]) of 2337 µM. The species (BiP NBD [1]; [42]) was 2452 µM, the species (BiP NBD [1]; [43]) was 2552 µM and the “rate of phosphate release relative to ADP release from the ADP·Pi-bound state” value (BiP NBD [1]; koff4 versus koff5) was 2.5 times. The koff (BiP NBD [1]; [44]) was 1.3 ± 0.2 s⁻¹, the kon (BiP NBD [1]; [45]) was 5000 ± 1000 M⁻¹ s⁻¹ and the Kd (BiP NBD [1]; [46]) was 260 ± 20 µM. For the same molecule, the koff (BiP NBD [1]; reactions 4, 5 (koff4, koff5): release from NBD·ADP·Pi, T = 37 °C) was 0.047 ± 0.01 s⁻¹, the kon (BiP NBD [1]; reactions 4, 5: Pi binding to NBD·ADP, ADP binding to NBD·Pi, T = 37 °C) was 200 ± 60 M⁻¹ s⁻¹ and the Kd (BiP NBD [1]; reactions 4, 5: one ligand leaving NBD·ADP·Pi, the other stays bound, T = 37 °C) was 235 ± 50 µM.

With `[Ca+2]` [calcium] the “molecular hydrolysis rate in-cyclo khydr” value (BiP NBD [2]; 3.3 mM calcium, 10 mM magnesium) was 1.43 ± 0.06 min⁻¹, the khydr (BiP NBD [2]; Fig 5a source data, 3.3 mM calcium: replicates [1]-[3] and average) was 1.484 min⁻¹ and 1.451 min⁻¹ and 1.372 min⁻¹ and the cycle timing (BiP NBD [2]; Fig 5d source data, 3.3 mM calcium: replicates [1]-[3] and average) was 40.4 s and 41.4 s and 43.7 s. The “increase of the MABA-ADP-bound lifetime” value (BiP; concentration-dependent) was “up to 4 fold” and the “decrease of the ATP hydrolysis rate of BiP” value (BiP; physiological calcium levels compared to no calcium) was 2 fold.
